# According to article PMC6812009, “Covalent Aurora A regulation by the metabolic integrator coenzyme A” (Redox Biology, 2019):
# Where two headings read alike, the source gives them in different places.
# Experiments:
# IGF-1R = IGF-1R (Homo sapiens, UniProt P08069); assay: Kinase profiling screen (radioactive filter-binding assay); format: biochemical; settings: 100 μM compound, 5 μM ATP; read-out: Kinase activity, % of activity in the absence of inhibitor
# Outline: (§1)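 CoA, dpCoA and ADP were each tested in vitro, in duplicate, at 100 μM final concentration as part of a 117-kinase panel. Recombinant kinases were used with model substrates and optimal ATP concentrations.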
# IR = IR (Homo sapiens, UniProt P06213); assay: as above; format: biochemical; settings: 100 μM compound, 20 μM ATP; read-out: Kinase activity, % of activity in the absence of inhibitor
# Sequence of IR (P06213 28-1382): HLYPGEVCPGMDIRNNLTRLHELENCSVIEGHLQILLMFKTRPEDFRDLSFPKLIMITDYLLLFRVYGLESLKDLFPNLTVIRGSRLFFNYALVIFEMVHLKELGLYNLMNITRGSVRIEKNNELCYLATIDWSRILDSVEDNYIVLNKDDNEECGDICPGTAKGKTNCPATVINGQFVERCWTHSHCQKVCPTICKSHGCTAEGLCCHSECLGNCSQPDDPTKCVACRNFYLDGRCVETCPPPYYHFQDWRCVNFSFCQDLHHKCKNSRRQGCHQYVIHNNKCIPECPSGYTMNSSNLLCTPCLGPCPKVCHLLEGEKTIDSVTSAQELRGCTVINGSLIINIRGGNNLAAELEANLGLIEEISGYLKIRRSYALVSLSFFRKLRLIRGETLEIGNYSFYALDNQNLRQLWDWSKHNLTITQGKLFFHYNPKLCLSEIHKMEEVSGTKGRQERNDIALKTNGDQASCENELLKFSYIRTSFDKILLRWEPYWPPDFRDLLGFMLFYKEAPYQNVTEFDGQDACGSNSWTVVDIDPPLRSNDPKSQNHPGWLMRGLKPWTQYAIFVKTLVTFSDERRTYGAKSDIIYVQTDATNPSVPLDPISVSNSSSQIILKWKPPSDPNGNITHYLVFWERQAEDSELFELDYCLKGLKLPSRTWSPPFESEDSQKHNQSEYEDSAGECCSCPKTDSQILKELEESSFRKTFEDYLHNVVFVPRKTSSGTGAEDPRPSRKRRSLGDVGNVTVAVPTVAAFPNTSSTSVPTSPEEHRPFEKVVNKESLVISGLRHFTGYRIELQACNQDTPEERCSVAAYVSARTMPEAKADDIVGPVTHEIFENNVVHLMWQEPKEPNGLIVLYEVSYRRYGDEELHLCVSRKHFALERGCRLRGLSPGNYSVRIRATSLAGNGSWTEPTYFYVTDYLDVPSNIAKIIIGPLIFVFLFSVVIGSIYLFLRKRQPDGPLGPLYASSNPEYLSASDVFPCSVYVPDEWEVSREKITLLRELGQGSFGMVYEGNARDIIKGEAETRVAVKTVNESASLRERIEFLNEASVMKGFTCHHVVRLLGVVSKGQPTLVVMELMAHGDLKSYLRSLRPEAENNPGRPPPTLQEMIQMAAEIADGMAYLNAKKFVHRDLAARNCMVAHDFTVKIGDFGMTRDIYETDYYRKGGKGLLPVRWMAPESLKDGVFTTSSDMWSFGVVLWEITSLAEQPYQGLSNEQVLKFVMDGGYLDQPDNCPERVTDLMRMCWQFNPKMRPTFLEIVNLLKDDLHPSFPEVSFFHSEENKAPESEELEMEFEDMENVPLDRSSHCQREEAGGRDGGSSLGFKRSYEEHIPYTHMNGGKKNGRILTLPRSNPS
# Outline: as §1
# IRR = IRR (Homo sapiens, UniProt P14616); assay: as above; format: biochemical; settings: 100 μM compound, 5 μM ATP; read-out: Kinase activity, % of activity in the absence of inhibitor
# Sequence of IRR (P14616 27-1297): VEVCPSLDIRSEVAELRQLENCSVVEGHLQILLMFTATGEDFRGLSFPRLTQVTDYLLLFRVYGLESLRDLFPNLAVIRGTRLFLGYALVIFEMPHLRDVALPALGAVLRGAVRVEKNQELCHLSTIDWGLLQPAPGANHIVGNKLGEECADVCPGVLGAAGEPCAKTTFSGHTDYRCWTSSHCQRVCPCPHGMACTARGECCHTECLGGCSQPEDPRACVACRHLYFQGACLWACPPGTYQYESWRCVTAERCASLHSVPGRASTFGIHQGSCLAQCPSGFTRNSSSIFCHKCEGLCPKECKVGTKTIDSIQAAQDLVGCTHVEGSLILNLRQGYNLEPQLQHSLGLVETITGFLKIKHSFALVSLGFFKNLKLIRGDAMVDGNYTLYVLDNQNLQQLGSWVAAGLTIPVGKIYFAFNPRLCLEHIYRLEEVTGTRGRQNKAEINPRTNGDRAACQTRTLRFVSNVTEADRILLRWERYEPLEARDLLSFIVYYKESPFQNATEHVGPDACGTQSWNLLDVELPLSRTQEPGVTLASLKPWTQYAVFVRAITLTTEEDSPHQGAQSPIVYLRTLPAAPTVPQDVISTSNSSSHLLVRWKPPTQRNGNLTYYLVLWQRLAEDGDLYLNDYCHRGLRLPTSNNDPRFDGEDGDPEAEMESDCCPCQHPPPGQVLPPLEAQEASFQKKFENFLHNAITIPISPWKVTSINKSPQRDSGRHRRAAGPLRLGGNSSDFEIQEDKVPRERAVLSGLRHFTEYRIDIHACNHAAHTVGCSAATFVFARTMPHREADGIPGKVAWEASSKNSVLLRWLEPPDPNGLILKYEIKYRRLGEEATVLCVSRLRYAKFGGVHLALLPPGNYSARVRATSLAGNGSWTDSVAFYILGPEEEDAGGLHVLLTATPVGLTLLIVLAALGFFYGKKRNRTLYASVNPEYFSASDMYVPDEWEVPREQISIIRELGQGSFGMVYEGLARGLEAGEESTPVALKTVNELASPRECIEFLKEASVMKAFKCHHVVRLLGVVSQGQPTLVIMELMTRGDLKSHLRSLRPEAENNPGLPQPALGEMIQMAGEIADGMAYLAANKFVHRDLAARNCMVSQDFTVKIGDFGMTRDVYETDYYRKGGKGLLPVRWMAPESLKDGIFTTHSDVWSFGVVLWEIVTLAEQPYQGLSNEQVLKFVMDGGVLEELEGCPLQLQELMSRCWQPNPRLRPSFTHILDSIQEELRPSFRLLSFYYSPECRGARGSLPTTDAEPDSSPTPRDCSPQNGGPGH
# Outline: as §1
# TrkA = TrkA (Homo sapiens, UniProt P04629); assay: as above; format: biochemical; settings: 100 μM compound, 20 μM ATP; read-out: Kinase activity, % of activity in the absence of inhibitor
# Sequence of TrkA (P04629 33-796): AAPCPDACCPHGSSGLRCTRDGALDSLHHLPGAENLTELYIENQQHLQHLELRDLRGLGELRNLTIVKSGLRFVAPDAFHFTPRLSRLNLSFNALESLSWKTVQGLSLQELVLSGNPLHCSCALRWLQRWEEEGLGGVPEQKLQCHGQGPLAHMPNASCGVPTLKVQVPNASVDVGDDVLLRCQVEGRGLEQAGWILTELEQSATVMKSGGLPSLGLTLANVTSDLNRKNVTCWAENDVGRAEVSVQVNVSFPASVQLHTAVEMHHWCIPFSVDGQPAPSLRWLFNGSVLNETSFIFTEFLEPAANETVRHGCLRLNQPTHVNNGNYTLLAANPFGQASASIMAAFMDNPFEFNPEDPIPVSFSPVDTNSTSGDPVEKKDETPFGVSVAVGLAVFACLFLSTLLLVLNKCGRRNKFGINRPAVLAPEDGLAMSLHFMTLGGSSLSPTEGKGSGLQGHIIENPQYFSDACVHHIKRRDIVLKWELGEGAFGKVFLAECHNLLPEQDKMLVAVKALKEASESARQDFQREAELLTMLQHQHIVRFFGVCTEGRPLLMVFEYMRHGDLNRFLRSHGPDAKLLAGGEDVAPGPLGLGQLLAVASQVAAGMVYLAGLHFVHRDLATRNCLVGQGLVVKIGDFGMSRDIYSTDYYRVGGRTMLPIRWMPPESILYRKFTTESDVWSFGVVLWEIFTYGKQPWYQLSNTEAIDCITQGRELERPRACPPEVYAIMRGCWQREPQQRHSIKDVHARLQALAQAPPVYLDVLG
# Outline: as §1
# VEGFR = assay: as above; format: biochemical, human; settings: 100 μM compound, 20 μM ATP
# Method: (§2) Profiling of 117 protein kinases with CoA, dpCoA and ADP was carried out at the International Centre for Protein Kinase Profiling at the University of Dundee. Each compound was tested in vitro, in duplicate, at 100 μM final concentration using recombinant kinases, model substrates and optimal concentrations of ATP. Bacterially expressed full-length His-Aurora A was used to determine the IC50 value for CoA (in the presence or absence of DTT), dpCoA, ADP and desulfo-CoA. The assay was performed in the presence of 5 μM competing ATP. To examine whether the inhibitory effect of CoA on Aurora A is modulated by TPX2, IC50 values for CoA were also generated in the presence and absence of 1 μg TPX2 (residues 1–43) fragment.
# Aurora A (active) = biological target: T1, Aurora A (active) (Homo sapiens, UniProt O14965); assay: In vitro Aurora A kinase assay (γ33P-ATP incorporation into myelin basic protein); format: biochemical
# T1 construct: Bacterially expressed full-length His-Aurora A was used to determine the IC50 value for CoA; made in house; host or cells: E. coli BL21 (DE3) pLysS
# T1 sequence (O14965 1-403): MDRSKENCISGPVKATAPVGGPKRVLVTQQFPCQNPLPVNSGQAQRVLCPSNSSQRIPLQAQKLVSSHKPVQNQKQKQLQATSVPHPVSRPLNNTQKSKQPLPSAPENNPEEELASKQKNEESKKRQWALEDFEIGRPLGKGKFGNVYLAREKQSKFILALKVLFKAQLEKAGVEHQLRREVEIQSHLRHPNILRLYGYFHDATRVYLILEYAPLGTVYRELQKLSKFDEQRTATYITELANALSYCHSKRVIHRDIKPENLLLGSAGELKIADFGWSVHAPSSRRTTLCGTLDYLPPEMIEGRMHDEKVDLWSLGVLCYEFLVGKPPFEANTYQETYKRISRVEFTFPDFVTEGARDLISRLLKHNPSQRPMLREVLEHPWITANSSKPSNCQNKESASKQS
# Method: as §2
# Aurora A kinase activity was assayed by measuring incorporation of γ^33P-ATP into myelin basic protein (Sigma). Purified recombinant protein (100 ng) was incubated at room temperature for 30 min in a total volume of 15 μl containing 50 mM HEPES pH 7.5, 10 mM MgCl2, 1 mM EGTA, 0.05% Brij-35, 0.5 mg/ml myelin basic protein, and 5 μM γ^33P-ATP (100–10,000 dpm/pmol). The reaction was stopped by spotting the reaction mixture onto squares of P81 phosphocellulose ion exchange paper (Whatmann), which were then immersed in 1.5% (v/v) phosphoric acid. After washing twice in 1% phosphoric acid followed by two washes in distilled water, the papers were air dried and radioactivity was counted by a scintillation counter and recorded by Quantasmart version 2.03.
# C290A Aurora A = biological target: T2, C290A Aurora A (Homo sapiens, UniProt O14965, C290A); assay: Thermal shift assay (differential scanning fluorimetry); format: binding; settings: 5 mM ATP or 5 mM CoA
# T2 construct: For enzyme and DSF assays, full-length human Aurora A and Aurora B and 1–43 TPX2 were produced; made in house; host or cells: E. coli BL21 (DE3) pLysS
# T2 sequence (O14965 whole entry C290A): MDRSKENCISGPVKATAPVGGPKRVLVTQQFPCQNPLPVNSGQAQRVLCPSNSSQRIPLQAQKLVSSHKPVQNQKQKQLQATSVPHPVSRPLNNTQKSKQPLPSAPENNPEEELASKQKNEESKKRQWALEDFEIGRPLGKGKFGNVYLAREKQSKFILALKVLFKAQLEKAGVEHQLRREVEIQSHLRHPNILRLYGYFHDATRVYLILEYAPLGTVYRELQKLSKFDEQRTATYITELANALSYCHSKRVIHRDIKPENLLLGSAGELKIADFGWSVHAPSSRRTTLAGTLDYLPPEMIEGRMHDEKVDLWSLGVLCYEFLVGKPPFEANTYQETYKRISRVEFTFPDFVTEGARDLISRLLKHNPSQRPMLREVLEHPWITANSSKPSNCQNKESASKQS
# Method: (§3) Asp274Asn and Thr217Glu Aurora A mutants were generated by PCR-site directed mutagenesis, expressed and purified as described previously. Cys290Ala Aurora A was generated using standard procedures, and purified as described.
# (§4) Thermal-shift assays were performed with a StepOnePlus Real-Time PCR machine (Life Technologies) using Sypro-Orange dye (Invitrogen) and thermal ramping (0.3 °C in step intervals between 25 and 94 °C). All proteins were diluted to a final concentration of 5 μM in 50 mM Tris/HCl, pH 7.4 and 100 mM NaCl in the presence or absence of the indicated concentrations of ligand (final DMSO concentration no higher than 4 % v/v). CoA, dephosphoCoA or kinase inhibitors diluted from 10 mM DMSO stocks were assayed as described previously. Normalized data were processed using the Boltzmann equation to generate sigmoidal denaturation curves, and average Tm/ΔTm values calculated as previously described using GraphPad Prism software.
# [1] = biological target: T3, WT Aurora A (T288 phosphorylated, active) (Homo sapiens, UniProt O14965); assay: as above; format: binding; settings: 5 mM ATP, 5 mM CoA or 0.1 mM MLN8237; for CoA dependent on non-reducing conditions
# T3 construct: Bacterially expressed full-length His-Aurora A was used to determine the IC50 value for CoA; made in house; host or cells: E. coli BL21 (DE3) pLysS
# T3 sequence (O14965 1-403): T1 sequence (O14965 1-403)
# Method: as §3, §4
# [2] = biological target: T4, kinase-dead D274N (inactive) Aurora A (Homo sapiens, UniProt O14965, D274N); assay: as above; format: binding; settings: 5 mM ATP or 5 mM CoA; CoA DTT-dependent
# T4 construct: For enzyme and DSF assays, full-length human Aurora A and Aurora B and 1–43 TPX2 were produced; 6His (N); made in house; host or cells: E. coli
# T4 sequence (O14965 whole entry D274N): as the sequence (O14965 whole entry C290A) above, with D274N, A290C counted along it
# Method: as §3, §4
# mouse oocytes = assay: Microinjection of mouse oocytes, spindle formation and chromosome alignment; format: cell-based; settings: 17 h after GV release; for Disruption of bipolar spindle formation and chromosome alignment: injected with 3 mM compound
# Method: Mouse oocytes arrested at the GV stage were injected with different concentrations of CoA (0.15–5 mM). Since the commercial preparation of CoA used for microinjection contained 3 mol of lithium ions per mole of CoA, control oocytes were injected with an equivalent amount of LiCl. In a separate study, oocytes were injected with 3 mM CoA, ADP, AMP, 3′-5′-ADP and pantetheine. To examine the effect of injected compounds on spindle formation, oocytes were fixed 17 h after GV release and stained for alpha-tubulin (green) and DNA (blue).
# [3] = 5 μM competing ATP, read-out: Aurora A (active) IC50 (μM), activity assay
SMILES,activity at 100 µM (IGF-1R),activity at 100 µM (IR),activity at 100 µM (IRR),activity at 100 µM (TrkA),"Kinase activity, % of activity in the absence of inhibitor (VEGFR)","IC50 (Aurora A (active); 5 μM ATP, 1 mM DTT, read-out: IC50, Aurora A kinase activity in the presence of DTT)","IC50 (Aurora A (active); 5 μM ATP, absence of DTT, read-out: IC50, Aurora A kinase activity)",IC50 (Aurora A (active); [3]),"TPX2-induced kinase activation after pre-incubation of Aurora A with CoA (Aurora A (active); 100 μM CoA pre-incubation, DTT-sensitive)","Inhibitory effect on Aurora A in the presence of TPX2 1–43 fragment (Aurora A (active); presence of TPX2 (residues 1–43), serial dilutions of CoA)",Ligand binding / thermal stabilization (C290A Aurora A),Change in thermal stability (ΔTm) [1],Ligand interaction by thermal shift [2],Disruption of bipolar spindle formation and chromosome alignment (mouse oocytes),"Number of oocytes with atypical spindles and misaligned chromosomes (mouse oocytes; microinjection of 0.15–5 mM CoA, dose-dependent)"
"CC(C)(COP(=O)(O)OP(=O)(O)OC[C@H]1O[C@@H](n2cnc3c(N)ncnc32)[C@H](O)[C@@H]1OP(=O)(O)O)[C@@H](O)C(=O)NCCC(=O)NCCS [CoA, Coenzyme A]",93%,100%,92%,104%,81.0%,47 µM,~5 µM,5 µM,attenuated,completely abrogated the inhibitory effect,deficient in CoA-induced thermal stabilization,marked change in thermal stability,still able to interact,disrupted both bipolar spindle formation and chromosome alignment,markedly increased
"CC(C)(COP(=O)(O)OP(=O)(O)OCC1OC(n2cnc3c(N)ncnc32)C(O)C1O)C(O)C(=O)NCCC(=O)NCCS (stereo not drawn) [dpCoA, dephospho-CoA]",–,–,–,–,–,–,–,17 µM,–,–,–,–,–,–,–
Nc1ncnc2c1ncn2C1OC(COP(=O)(O)OP(=O)(O)O)C(O)C1O (stereo not drawn) [ADP],–,–,–,–,–,–,–,54 µM,–,–,–,–,–,not,–
